Laboratory results as given in the NIST ThermoML archive (doi:10.1016/j.jct.2006.06.002).
± gives the expanded uncertainty stated by the source.

Assay: refractive index (Na D-line) (dimensionless)
Details: 101.33 kPa, Liquid, Standard Abbe refractometry

Row | Structure (SMILES) | refractive index (303.15 K) | refractive index (293.15 K)
1 | c1ccccc1 [benzene] | 1.4954 ± 0.0009 | –
2 | CO [methanol] | – | 1.3288 ± 0.0009
